In patent publication US4496551A (priority 1983, dated 1985):

What was measured:
[1] = test system: Puccinia recondita var. tritici; assay: wheat leaf rust control on wheat seedlings; type: in vivo; conditions: for pest or weed control at 100 ppm: sprayed day before inoculation
Outline: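 Compounds at 100 ppm (6% acetone, 250 ppm polyhydric alcohol ester surfactant in water) sprayed to run-off on wheat seedlings; inoculated next day with P. recondita spores. Kept 24 h at saturated humidity, 20°, then 7 days in growth room before rust pustule rating.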

Erysiphe cichoracearum = assay: cucumber powdery mildew control on cucumber seedlings; type: in vivo; conditions: Golovinomyces cichoracearum, 168 h, 7 days
Outline: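 Compounds at 100 ppm in water with 6% acetone and 250 ppm TREM 014 surfactant, sprayed to run-off on cucumber seedlings. Inoculation with Erysiphe cichoracearum spores the following day; disease rated after 7 days in a growth room against untreated plants.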

Erysiphe graminis = assay: barley powdery mildew control on barley seedlings; type: in vivo; conditions: Blumeria graminis, 168 h; for pest or weed control at 100 ppm: 7 days
Experimental: Several compounds of the previous examples were again dissolved in acetone in an amount equal to 6% of the final volume and then suspended at a concentration of 100 ppm in purified water containing 250 ppm of the surfactant TREM 014 (polyhydric alcohol esters). This suspension was sprayed to the point of run-off on barley seedlings. The following day, the plants were inoculated with a spore suspension of the fungus Erysiphe graminis, causal agent of barley powdery mildew, and incubated in a growth room for 7 days. Disease ratings were then made. Treated plants had little or no powdery mildew in contrast to untreated plants which were covered with powdery mildew.

Venturia inaequalis = assay: apple scab control on apple seedlings; type: in vivo; conditions: Venturia inaequalis; 100 ppm
Outline: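 Apple seedlings sprayed to run-off with 100 ppm compound suspension (6% acetone, 250 ppm TREM 014 surfactant). Inoculated next day with Venturia inaequalis spores; 24 hours at 20° in saturated humidity, then 10-12 days in growth room. Scab lesions compared with untreated plants.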

Helminthosporium maydis = assay: southern corn leaf blight control on corn seedlings; type: in vivo; conditions: Bipolaris maydis, 168 h
Outline: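 Corn seedlings were sprayed to run-off with 100 ppm compound (6% acetone, 250 ppm TREM 014), inoculated next day with H. maydis spores, then kept 24 h at 20° in saturated humidity and 7 more days in a growth room. Lesions were rated as disease score.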

Cercospora arachidicola = assay: peanut early leafspot control on peanut seedlings; type: in vivo; conditions: Mycosphaerella arachidis, 336 h
Outline: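 Compounds dissolved in acetone (6% of final volume) and suspended at 100 ppm in water with 250 ppm TREM 014, sprayed to run-off on seedlings. Cercospora arachidicola inoculated next day; 24 h saturated humidity at 27°, then 14 days growth room before disease and leafspot rating.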

Monilinia fructicola = assay: stone fruit brown rot colony growth inhibition on canned peach halves; type: cell-based; conditions: 120 h, dipped 3 minutes, five days, percent growth inhibition of colonies, read-out: % Control Brown Rot
Source text: Several compounds of the previous examples were again dissolved in acetone in an amount equal to 5% of the final volume and then suspended at a concentration of 100 ppm in purified water containing 700 ppm of the surfactant TREM 014 (polyhydric alcohol esters). Canned peach halves were dipped in this suspension for three minutes and then placed to air dry in sterile containers. Upon drying, the peach halves were inoculated with two pieces of Monilinia fructicola, causal agent of stone fruit brown rot, mycelium and then incubated in the sterile containers for five days. At that time the radii of the colonies' growth were measured on each peach. […] Percent disease contol (percent growth inhibition of colonies on treated peaches as compared to that of colonies on untreated peaches) is expressed in the table below.

Rhizoctonia solani = assay: rice sheath blight control on rice seedlings; type: in vivo; conditions: Rhizoctonia solani, 168 h, 7 days
Outline: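 Rice seedlings sprayed to run-off with 100 ppm compound suspension (6% acetone, 250 ppm surfactant), then inoculated next day with bran/mycelium of Rhizoctonia solani. After 7 days in a growth room, sheath blight disease was rated.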

Pyricularia oryzae = assay: whole plant or invertebrate; type: in vivo; conditions: 168 h, read-out: % Control of Rice Blast
Phytophthora infestans = assay: whole plant or invertebrate; type: in vivo; conditions: Phytophthora infestans, in Solanum lycopersicum, 168 h, read-out: % Control of Tomato Late Blight
Pythium aphanadermatum [2] = assay: Pythium control on coated cotton seeds; type: in vivo; conditions: 168 h, 2 gm/kg seed, 1 week
Source text: Several compounds of the previous examples were incorporated into a proprietary formulation and used to coat cotton seeds at a rate of 2 gm/kg seed. After being thoroughly coated, the seeds were allowed to air dry at room temperature. The cotton seeds were then planted into soil amended with the fungus Pythium aphanadermatum, sand, and corn meal at a rate sufficient to kill most untreated seeds. The seeds were held at room temperature for 1 week, after which time disease ratings were made.

Pythium aphanadermatum [3] = assay: Pythium control on coated corn seeds; type: in vivo; conditions: 504 h, 2 gm/kg seed, 49° F. 2 weeks then 70° F. 1 week
Experimental: Several compounds of the previous examples were incorporated into a proprietary formulation and used to coat corn seeds at a rate of 2 gm/kg seed. After being thoroughly coated, the seeds were allowed to air dry at room temperature. The seeds were then planted into soil amended with a mixture of the fungus Pythium aphanadermatum, sand, and corn meal at a rate sufficient to kill most untreated seeds. The seeds were held at 49° F. for 2 weeks and then at 70° F. for 1 additional week. After this time disease ratings were made.

cucumber seedlings = assay: phytotoxicity on cucumber seedlings; type: in vivo; design: key: G: growth reduction; H: hormonal effects; conditions: 100 ppm
apple seedlings = assay: phytotoxicity on apple seedlings; type: in vivo; design: key: B: Phytotoxic burn; conditions: 100 ppm
Experimental: Compounds of this invention were dissolved in acetone in an amount equal to 6% of the final volume and then suspended at a concentration of 100 ppm in purified water containing 250 ppm of the surfactant TREM 014 (polyhydric alcohol esters). This suspension was sprayed to the point of run-off on apple seedlings. The following day, the plants were inoculated with a spore suspension of the fungus Venturia inaequalis, causal agent of apple scab, and incubated in a saturated humidity chamber at 20° for 24 hours and then in a growth room for an additional 10-12 days. Treated plants from successful treatments had few or no apple scab lesions when compared to untreated plants which were covered with scab lesions.

5 Phytophthora species = type: cell-based; conditions: 200.0 ppm in agar, 22° C., 6 days; controlled = radial growth 1 mm or less

SMILES | pest or weed control at 100 ppm [1] [%] | pest or weed control at 100 ppm (Erysiphe cichoracearum) [%] | pest or weed control at 100 ppm (Erysiphe graminis) [%] | pest or weed control at 100 ppm (Venturia inaequalis) [%] | pest or weed control at 100 ppm (Helminthosporium maydis) [%] | pest or weed control at 100 ppm (Cercospora arachidicola) [%] | inhibition of growth at 100 ppm (Monilinia fructicola) [%] | pest or weed control at 100 ppm (Rhizoctonia solani) [%] | pest or weed control at 100 ppm (Pyricularia oryzae) [%] | pest or weed control at 100 ppm (Phytophthora infestans) [%] | pest or weed control at 2000 mg/kg (Pythium aphanadermatum [2]) [%] | pest or weed control at 2000 mg/kg (Pythium aphanadermatum [3]) [%] | Phytotoxicity (growth reduction or hormonal effects) (cucumber seedlings) | Phytotoxic burn (apple seedlings) | No. of 5 Phytophthora species controlled in vitro (5 Phytophthora species) | pest or weed control at 400 ppm ([1]; 400 ppm) [%] | pest or weed control at 200 ppm (Erysiphe graminis; 200 ppm) [%]
CCCC[Si](C)(Cn1ccnc1)c1ccc(Cl)cc1 (centres unmarked) [Butyl(4-chlorophenyl)(1H-imidazol-1-ylmethyl)methylsilane] | 90 | 100 | 100 | 90 | 50 | 0 | 45 | 0 | 0 | 0 | 0 | 0 | G |  |  |  | 
C[Si](C)(Cn1ccnc1)C1CCCCC1 [Cyclohexyl(dimethyl(1H-imidazol-1-ylmethyl)silane] | 0 | 100 |  | 100 | 50 | 0 |  | 0 |  |  |  |  | G | B |  |  | 
COc1ccc([Si](C)(C)Cn2ccnc2)cc1 [Dimethyl(1H-imidazol-1-ylmethyl)(4-methoxyphenyl)silane] | 60 | 100 | 100 | 0 | 0 | 0 |  | 0 | 0 | 0 |  |  |  |  | 0 |  | 
CCCCCCCCCCCC[Si](C)(C)Cn1ccnc1 [Dodecyl(dimethyl)(1H-imidazol-1-ylmethyl)silane] |  | 55 |  | 0 | 0 |  |  |  |  |  |  |  |  | B |  | 80 | 100
C[Si](C)(Cn1ccnc1)c1ccc(Oc2ccc(Cl)cc2)cc1 [[4-(4-Chlorophenoxy)phenyl]dimethyl(1H-imidazol-1-ylmethyl)silane] | 90 | 100 |  | 0 | 0 | 0 |  | 70 | 100 | 0 |  | 0 |  |  | 0 |  | 
C[Si](Cn1ccnc1)(c1ccc(F)cc1)c1ccc(F)cc1 [bis(4-Fluorophenyl)(1H-imidazol-1-ylmethyl)methylsilane] | 100 | 100 |  | 100 | 60 | 100 |  | 90 | 0 | 0 |  |  |  |  | 0 |  | 
